# Results taken from patent US9889093B2, “Application of andrographolide in the preparation of a pharmaceutical for treatment of inflammatory bowel disease, andrographolide enteric targeting micropellet, and method for preparation thereof” (TASLY PHARMACEUTICAL GROUP CO., LTD., priority 2013, dated 2018).
# Marks after values point to notes of the source that are not given here.
# Assays:
# Format in all cases: in vivo
# [1] = test system: zebra fish Crohn's disease model; experiment: Zebra fish Crohn's disease model (TNBS), efficacy; conditions: intestinal tissue; prednisolone 10 μM; x ± SE, n = 10
# [2] = test system: DSS-induced UC mice; experiment: DSS-induced UC mouse model, disease active index; conditions: mesalazine enteric tablet 227.5 mg/kg/d
# Source text: 4 Dose Designing and Grouping • 4.1 Grouping: quarantine-qualified 84 mice were randomly divided into 6 groups: the model control group, the positive control group, the tested drug low-dose intragastric group, the tested drug high-dose intragastric group, the tested drug low-dose intracolonical group and the tested drug high-dose intracolonical group, 14 mice per group. All animals drank 5% DSS solution daily for consecutive 14 days to establish UC model. Animals were administrated with the drug for treatment on the 2nd day after being given 5% DSS drinking water. • 4.2 Dose: in this study, dose of administration of the mice in all groups was designed on the basis of client's requirements, and the same doses were adopted in both intragastric and intracolonical groups. Animals were not treated in the model control group, the positive control group (mesalazine enteric tablet, 227.5 mg·kg^−1·d^−1), the andrographolide low-dose intragastric group (60 mg·kg^1·d^−1), the andrographolide high-dose intragastric group (180 mg·kg^−1·d^−1), the andrographolide low-dose intracolonical group (60 mg·kg^−1·d^−1) and the andrographolide high-dose intracolonical group (180 mg·kg^−1·d^−1).
# 5 Method • 5.1 Method of making UC model: all animals drank 5% DSS solution daily for consecutive 14 days. • 5.2 Method of administration: on the 2nd day after modeling, the mice were treated intragastrically or intracolonically with the drug at 1 mL/100 g once a day for consecutive 14 days. • 5.3 Method for sampling in experiment: 2 hours after the last administration, the mice were killed by cervical vertebra dislocation and abdomen was opened to separate the colon. Along mesenteric side, the intestinal lumen was cut and rinsed with 4° C. normal saline and spread on a plastic plate. • 5.4 Method for evaluating disease active index (DAI): the disease active index was assessed at the 7th and 14th day after administration. The method was presented together with the following three parameters: the body weight loss percentages (unchanged BW: 0 score, 1˜5: 1 score, 5˜10: 2 score, 10˜15: 3 score, more than 15: 4 score), stool viscosity (normal stool: 0 score, loosen stool: 2 score, diarrhea: 4 score) and blood stool (normal stool: 0 score, occult blood stool: 2 score and positive blood stool: 4 score). Total score of three parameters was divided by 3 to give the DAI, namely DAI=(BW index score+stool character score+stool blood score)/3.
# 6 Observation Indices • 6.1 Observation: the general clinical symptoms in the mice were observed daily from the beginning to the end of the experiment, and the stool, mental status and death status were recorded. • 6.2 Body weight: BW was recorded weekly from the beginning to the end of the experiment. • 6.3 Calculation of DAI: DAI was calculated on the 7th and 14th day after administration so as to assess disease activity. • 6.4 The colon mucosal tissue 8˜10 cm away from the anus was sampled, embedded with paraffin and stained with routine HE. Colon mucosal injury was observed by a microscope and histological injury was scored based on the following indices: ulcer inflammatory granuloma, fibrosis and pathological degree.
# (§1) Data were expressed as mean+standard deviation (x±S). All numerical variables were analyzed with SPSS13.0 software by one-way ANOVA. T-test analysis was used for inter-group comparison.
# [3] = test system: TNBS-induced UC rats; experiment: TNBS-induced UC rat model, different administration routes
# Source text: 4 Dose Designing and Grouping • 4.1 Grouping: quarantine-qualified 84 rats were all used for making UC model. The successful rats were randomly divided into 6 groups: the model control group, the positive control group, the andrographolide low-dose intragastric group, the andrographolide high-dose intragastric group, the andrographolide low-dose intracolonical group and the andrographolide high-dose intracolonical group, 14 rats per group. • 4.2 Dose: the same doses were adopted in both intragastric and intracolonical groups. Animals were not treated in the model control group, the positive control group (mesalazine enteric tablet, 420 mg·kg^−1·d^−1), the andrographolide low-dose intragastric group (30 mg·kg^−1·d^−1), the andrographolide high-dose intragastric group (90 mg·kg^−1·d^−1), the andrographolide low-dose intracolonical group (30 mg·kg^−1·d^−1) and the andrographolide high-dose intracolonical group (90 mg·kg^−1·d^−1).
# 5. Method • 5.1 Method of making UC model: the rats were anesthetized. 2 mm-diameter latex tube was gently inserted into the position about 8 cm inside the body of the rats through anus, and TNBS in 50% ethanol solution (TNBS 125 mg/kg) was injected into intestinal lumen with an injector by one time, 0.5 ml/rat. The tail of the rat was lifted up for 30 s to make the model making agent (i.e., TNBS) fully infiltrate into the intestinal lumen of the rats. • 5.2 Method of administration: the same dose (1 mL/100 g) was adopted in both intragastric and intracolonical administration, once daily for consecutive 5 days. • 5.3 Method for sampling in experiment: 2 hours after the last administration, the rats were killed by cervical vertebra dislocation and abdomen was opened to separate the colon. Along mesenteric side, the intestinal lumen was cut and rinsed with 4° C. normal saline and spread on a plastic plate. • 5.4 Scoring method for colon gross morphological injury was referred to scoring method for mucosal injury (Bjelkengren G, Aronsen K F, Augustsson N E, etc. Radioprotective effect of local administration of lysine vasopressin and triglycyl lysine vasopressin on the rectal mucosa in rats[J]. Acta Oncol, 1995, 34(4):487-92) to record the mucosal injury score: dotted line blooding and small red spots (<1 mm): 1 score, piece blooding and big red spots (=1 mm): 3 score; and erosion and ulcer: 5 score.
# as §1
# [4] = test system: TNBS-induced colitis mice; experiment: TNBS-induced UC (colitis) mouse model
# Procedure: 5% (w/v) TNBS solution was diluted with double-distilled water and mixed with 50% (v/v) ethanol in equal volume to have 1.5% (w/v) TNBS solution. In the model control group, the mice were anesthetized with 1 wt % pentobarbital solution at a dose of 0.05 ml/10 g body weight. After being anesthetized, the mice were administrated with 1.5% (w/v) TNBS solution at a dose of 0.1 ml/mouse by gently inserting stomach perfusion device to about 3 cm depth via anus and arriving at the colon, and the IBD was induced. In the saline group, the saline was gently injected into the colon at a dose of 0.1 ml/mouse. In the normal control group, 50% (v/v) ethanol was gently injected into the colon at a dose of 0.1 ml mouse.
# After one week adaptive feeding, all animals were randomly divided into 5 groups according to body weight, 10 mice in one group: the normal control group, the model control group, the andrographolide low-dose group (20 mg/kg/d), the andrographolide high-dose group (40 mg/kg/d) and the positive control group (Sulfasalazine group, 300 mg/kg/d). Two hours after making model, the animals in each treating groups were orally administrated twice daily with the andrographolide and once daily in the positive control group. After successive administration for 7 days, the abdomen was opened 24 hours after the last administration to observe adhesion degree between the colon and other organs. The colon was separated and weighed.
# 1. Body weight: after making model, body weight was measured every day to observe the change in the animals.
# 2. Evaluation of inflammation: the abdomen was opened 24 hours after the last administration to observe adhesion degree between the colon and other organs. Every segment of the colon was taken out and weighed to calculate the percentage of the colon weight to body weight, as the colon index. The formula was presented as follows: Decrease rate of colon specific weight=(colon index of the model control group−colon index of the treatment group)/colon index of the model control group×100%
# 3. Histopathological examination: a part of the colon was taken to prepare the pathological section, and the standard for score was as follows: • 0 score, no inflammatory symptoms; • 1 score, low-grade inflammation with no structure change; • 2 score, low-grade leukocyte infiltration; • 3 score, high-grade leukocyte infiltration, high vascular density, crypt extension, thickened colon wall and superficial ulcer • 4 score, high-grade leukocyte infiltrating exceeding to mucous layer, crypt extension, decrease of goblet cell, high vascular density, thickened colon wall and extensive ulcer
# SPSS11.5 software was used for analysis and the data were expressed as x±S. Variance analysis was used for comparison of significant difference among groups.
# [5] = mesalazine enteric tablet 420 mg/kg, once daily 5 days
# [6] = sulfasalazine 300 mg/kg/d, once daily, 7 days
smiles,measurement,setting,value
"C[C@]12C=CC(=O)C=C1CC[C@@H]1[C@@H]2[C@@H](O)C[C@@]2(C)[C@H]1CC[C@]2(O)C(=O)CO [prednisolone, reference compound]",Number of Neutrophil,[1],14 ± 0.60
"Nc1ccc(O)c(C(=O)O)c1 [Positive control group, mesalazine, reference compound]",DAI on the 7th day,[2],1.31 ± 0.14
same,DAI on the 14th day,[2],1.10 ± 0.55
same,Gross morphological injury score,[3]; [5],3.16 ± 1.97
same,Ulcer ratio,[3]; [5],35.45* %
same,"Formless watery stool symptoms, course",[3]; positive control group 420 mg/kg,most of watery stool symptoms disappeared in the rats on the 5th˜6th days
"O=C(O)c1cc(/N=N/c2ccc(S(=O)(=O)Nc3ccccn3)cc2)ccc1O [Sulfasalazine, reference compound]",Body weight increase compared with the model control group,"[4]; FIG. 1, treated groups",increased faster than that in the model control group
same,Colon scores,"[4]; histopathological score 0-4, sulfasalazine 300 mg/kg/d, 7 days",2.8*
same,Colon indices,"[4]; percentage of colon weight to body weight, sulfasalazine 300 mg/kg/d, 7 days",1.75 ± 0.43
same,Body weight,[4]; [6],19.13 ± 0.99 g
same,Colon weight,[4]; [6],0.33 ± 0.06 g
same,Intestinal elasticity compared with the model control group,"[4]; treated groups, after 7 days",higher than that in the model control group
same,Decrease rate of colon specific weight,"[4]; vs model control group, sulfasalazine 300 mg/kg/d, 7 days",47.87%
